Source: paper PMC5185470 (Bioorganic & medicinal chemistry letters, 2016)

What was measured:
AChE = AChE (Homo sapiens, UniProt P22303); assay: biochemical; format: biochemical; conditions: for increase of AChE inhibition relative to the unsubstituted nitropyridazine: vs JWS
BuChE = BuChE (Homo sapiens, UniProt P06276); assay: biochemical
M2 receptor = target: T1, M2 receptor (Homo sapiens, UniProt P08172); conditions: read-out: M2 receptors IC50; previous studies; cited from earlier work
T1 sequence (P08172 1-466): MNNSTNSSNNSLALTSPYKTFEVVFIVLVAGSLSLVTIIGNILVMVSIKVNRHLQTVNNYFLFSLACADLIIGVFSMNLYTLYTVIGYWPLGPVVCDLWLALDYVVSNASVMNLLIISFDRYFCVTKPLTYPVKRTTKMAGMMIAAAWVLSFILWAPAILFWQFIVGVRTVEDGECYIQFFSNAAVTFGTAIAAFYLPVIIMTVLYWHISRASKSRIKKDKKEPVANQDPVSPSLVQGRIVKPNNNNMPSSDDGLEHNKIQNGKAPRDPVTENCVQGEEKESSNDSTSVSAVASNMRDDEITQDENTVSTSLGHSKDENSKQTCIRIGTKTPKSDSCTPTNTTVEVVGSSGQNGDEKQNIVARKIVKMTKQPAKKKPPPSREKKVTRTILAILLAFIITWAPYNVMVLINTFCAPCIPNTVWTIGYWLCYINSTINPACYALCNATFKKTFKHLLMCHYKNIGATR

[1] = Chemical decomposition on storage; format: physicochemical; conditions: estimated, after 6 months; nitro replaced by hydroxyl

AChE, sequence (P22303 32-614): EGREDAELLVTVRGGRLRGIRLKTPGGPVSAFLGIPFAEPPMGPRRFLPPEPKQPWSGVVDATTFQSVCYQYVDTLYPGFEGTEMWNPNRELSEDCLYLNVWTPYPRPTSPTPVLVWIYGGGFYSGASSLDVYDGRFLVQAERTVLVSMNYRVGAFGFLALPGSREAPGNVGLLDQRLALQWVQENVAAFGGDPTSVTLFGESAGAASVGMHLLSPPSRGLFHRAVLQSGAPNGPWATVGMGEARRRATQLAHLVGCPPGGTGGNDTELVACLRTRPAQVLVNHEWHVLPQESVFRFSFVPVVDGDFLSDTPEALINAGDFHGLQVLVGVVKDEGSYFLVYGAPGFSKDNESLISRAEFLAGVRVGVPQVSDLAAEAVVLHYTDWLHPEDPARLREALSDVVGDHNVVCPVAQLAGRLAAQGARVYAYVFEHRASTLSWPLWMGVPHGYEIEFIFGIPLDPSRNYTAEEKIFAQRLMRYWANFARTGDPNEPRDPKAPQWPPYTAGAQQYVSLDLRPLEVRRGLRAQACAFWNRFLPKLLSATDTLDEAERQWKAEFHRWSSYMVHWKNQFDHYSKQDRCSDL
BuChE, sequence (P06276 29-602): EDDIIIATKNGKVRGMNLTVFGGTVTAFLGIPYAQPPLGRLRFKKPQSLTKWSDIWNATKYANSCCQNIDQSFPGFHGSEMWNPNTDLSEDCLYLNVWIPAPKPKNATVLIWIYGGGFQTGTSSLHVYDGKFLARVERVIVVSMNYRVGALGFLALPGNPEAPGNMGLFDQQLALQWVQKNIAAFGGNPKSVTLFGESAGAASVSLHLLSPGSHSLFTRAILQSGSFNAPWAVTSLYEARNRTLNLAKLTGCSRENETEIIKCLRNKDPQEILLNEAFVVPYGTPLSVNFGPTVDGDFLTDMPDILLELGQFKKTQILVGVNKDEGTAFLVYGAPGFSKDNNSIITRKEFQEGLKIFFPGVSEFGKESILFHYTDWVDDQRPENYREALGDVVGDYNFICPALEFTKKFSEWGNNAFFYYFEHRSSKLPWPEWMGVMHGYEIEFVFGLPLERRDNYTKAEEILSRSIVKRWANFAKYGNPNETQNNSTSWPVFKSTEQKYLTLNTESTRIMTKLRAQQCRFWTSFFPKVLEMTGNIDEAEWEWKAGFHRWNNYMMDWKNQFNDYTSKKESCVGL

## Cc1c(-c2ccccc2)nnc(NCCSCc2ccc(CN(C)C)o2)c1[N+](=O)[O-] [Compound 10]
AChE
  increase of AChE inhibition relative to the unsubstituted nitropyridazine: ~3 fold

## CN(C)Cc1ccc(CSCCNc2nnc(-c3ccccc3)c(-c3ccccc3)c2[N+](=O)[O-])o1 [Compound 12]
AChE
  increase of AChE inhibition relative to the unsubstituted nitropyridazine: ~3 fold

## CN(C)Cc1ccc(CSCCNc2ccc(Cl)nn2)o1 [Compound 16]
BuChE
  IC50: > 50 µM

## CN(C)Cc1ccc(CSCCNc2nc(N)no2)o1 [Compound 17]
AChE
  IC50: > 50 µM
BuChE
  IC50: > 50 µM

## CN(C)Cc1ccc(CSCCNc2nc(N)n[nH]2)o1 [Compound 18]
AChE
  IC50: > 50 µM
BuChE
  IC50: > 50 µM

## CS/C(=N\S(=O)(=O)c1ccc(C)cc1)NCCSCc1ccc(CN(C)C)o1 [Compound 22]
AChE
  IC50: > 50 µM
BuChE
  IC50: > 50 µM

## Cc1ccc(S(=O)(=O)NCCSCc2ccc(CN(C)C)o2)cc1 [Compound 23]
AChE
  IC50: > 50 µM

## CN(C)Cc1ccc(CSCCNC(=O)c2ccccc2-c2ccccc2C(=O)O)o1 [Compound 24]
AChE
  IC50: > 50 µM
BuChE
  IC50: > 50 µM

## Cc1cccc(Nc2ccccc2C(=O)NCCSCc2ccc(CN(C)C)o2)c1C [Compound 25]
AChE
  IC50: > 50 µM
BuChE
  IC50: > 50 µM

## CN(C)Cc1ccc(CSCCN2C(=O)CCC2=O)o1 [Compound 27]
BuChE
  IC50: > 50 µM

## CC1CC(=O)N(CCSCc2ccc(CN(C)C)o2)C1=O (centres unmarked) [Compound 28]
BuChE
  IC50: > 50 µM

## CN(C)Cc1ccc(CSCCN2C(=O)c3ccc([N+](=O)[O-])cc3C2=O)o1 [Compound 31]
BuChE
  IC50: > 50 µM

## CN(C)Cc1ccc(CSCCN2C(=O)c3cccc4cc([N+](=O)[O-])cc(c34)C2=O)o1 [Compound 33]
AChE; vs donepezil IC50 = 0.050 µM
  fold less active than donepezil (AChE): 3 fold

## CN(C)Cc1ccc(CSCCNc2nnccc2[N+](=O)[O-])o1 [JWS, N-(2-(((5-((dimethylamino)methyl)furan-2-yl)methyl)thio)ethyl)-4-nitropyridazin-3-amine]
M2 receptor
  IC50: 0.06 µM
[1]
  chemical decomposition: about 10%
